Experimental findings from article PMC9146377, “Design and Synthesis of Novel Bis-Imidazolyl Phenyl Butadiyne Derivatives as HCV NS5A Inhibitors” (Pharmaceuticals, 2022) are described below.

A word on the melting point: it is the temperature of the solid-liquid transition. A word on the pEC50: it is the negative decadic logarithm of the EC50, by convention in mol/L. In general, CC50 refers to the concentration giving 50% cytotoxicity.

Each structure is given as a SMILES string. pEC50: −log10 of the molar value. Where two headings read alike, the source gives them in different places. Where only a bound is given, the exact number is not on record here.

For data set [1], the system named is HCV genotype 1b Con-1 subgenomic replicon. In words: Anti-HCV luciferase assay, genotype 1b (Con1) subgenomic replicon in Huh5-2 cells. The class given is cell-based, Hepatitis C virus. Conditions: for HCV Replicon 1b SI50: CC50/EC50, Huh5-2 cells. Here is the method: (§1) All synthesized compounds were tested against HCV genotype 1b Con-1 subgenomic replicon in the Huh-5-2 stable cell line. Specifically, their activity against viral replication was estimated by measuring firefly luciferase, which is co-expressed by the bicistronic replicon, and their half-maximal effective concentrations (EC50) were determined. In parallel, the half-maximal cytotoxic concentrations (CC50) of the compounds were estimated, and their selective indexes (SI50: CC50/ EC50) were calculated. All novel synthesized compounds were active against HCV 1b with EC50 < 1 µM except for compound 4b (Table 3).
Huh5-2 [65] and Huh7-JFH1 [66] stable cell lines harbor the subgenomic HCV reporter replicon I389luc-ubi-neo/NS3-3′/Con1/5.1 (genotype 1b; strain Con1) and I389luc-ubi-neo/NS3-3′_dg_JFH1 (genotype 2a, JFH1 strain), respectively (kindly provided by R. Bartenschlager, Heidelberg University, Heidelberg, Germany). Huh7.5-3a and Huh7.5-4a stable cell lines harbor the subgenomic HCV reporter replicon S52-SG (Feo) (AII) (genotype 3a; S52 strain) and ED43-SG (Feo) (VYG) (genotype 4a; ED43 strain), respectively (viral constructs kindly provided by C.M. Rice, Rockefeller University, New York, NY, USA). These replicons carry as a first cistron firefly luciferase (F-Luc) and neomycin phosphotransferase genes under the translational control of the HCV internal ribosome entry site (IRES), followed by HCV NS3 to NS5B proteins under the control of the EMCV IRES.
The anti-HCV assay in replicon cells was performed by seeding 1 × 10^4 cells per well in a 96-well plate. After 24 h of incubation at 37 °C (5% CO2) and medium removal, serial dilutions of the test compounds in complete DMEM were added. Cells were lysed after 72 h, and F-Luc activity was measured. The anti-HCV assay for the full-length viral construct H77S.3/GLuc2A was performed after electroporation of Huh7-Lunet cells with viral RNA. Cells were seeded in 96-well plates, the medium was removed 24 h after electroporation, and serial dilutions of the compounds in complete DMEM were added. At 72 h post-treatment, cell supernatants were collected, and G-Luc activity was measured. In addition, the cells were lysed for total protein quantification.
Relative luminescence units (RLU) were expressed as a percentage of the respective units derived from DMSO-treated cells (control). The half-maximal effective concentration (EC50), defined as the concentration of compound that reduces luciferase signal by 50%, was calculated by dose-response curve analysis using Prism 5.0 software (GraphPad Software Inc., San Diego, CA, USA).
The F-Luc activity was measured using the Luciferase Assay System (Promega, Madison, WI, USA), as recommended by the manufacturer. The G-Luc activity was measured using 12 μM coelenterazine (Promega) in assay buffer (50 mM potassium phosphate, pH 7.4, 500 mM NaCl, 1 mM EDTA). Measurements were carried out using a GloMax 20/20 single tube luminometer (Promega) for 10 s. The F-Luc activity was normalized to the total protein amount determined using the Bradford assay reagent (Pierce, Waltham, MA, USA).
(In general: Replicon systems follow genome replication, usually without infectious particles.)

The nature of data set [2]: Cytotoxicity assay (intracellular ATP levels) in Huh5-2 replicon cells. Format: cell-based. Conditions: human, Huh5-2 cells, read-out: HCV Replicon 1b CC50. The procedure:
as §1
Intracellular ATP levels were measured to determine the cytotoxicity of the compounds in the treated cells. In 96-well plates, 10^4 cells per well were seeded, incubated with serial dilutions of the compounds or DMSO as a control for 72 h at 37 °C (5% CO2) and lysed for ATP measurement. ATP levels were measured using the ViaLight HS BioAssay kit (Lonza, Basel, Switzerland) in a GloMax 20/20 single-tube luminometer (Promega) for 1 s, according to the manufacturer’s protocol. Values were normalized to total protein amounts and used to determine the compound concentration causing 50% cell death (CC50). Nonlinear regression analysis was performed using Prism 5.0 software (GraphPad Software Inc., San Diego, CA, USA).

The mark [3] stands for this setting: Hepatitis C virus, Huh-5-2, 72 h, Huh5-2 cells, Con1 strain, F-Luc, 72 h, mean of three experiments, read-out: HCV Replicon 1b EC50.
The mark [4] stands for this setting: Hepatitis C virus, Huh-5-2, 72 h, read-out: HCV Replicon 1b EC50, Huh5-2 cells, Con1 strain, F-Luc, 72 h, mean of three experiments.
Setting [5] is: Huh5-2 cells, Con1 strain, F-Luc, 72 h, mean of three experiments, read-out: HCV Replicon 1b EC50.

`COC(=O)N[C@@H](C(=O)N1CCC[C@H]1c1ncc(-c2cccc(C#CC#Cc3cccc(-c4cnc([C@@H]5CCCN5C(=O)[C@H](NC(=O)OC)C(C)C)[nH]4)c3)c2)[nH]1)C(C)C` [Compound 2a, Dimethyl ((2R,2′R)-((2S,2′S)-((buta-1,3-diyne-1,4-diylbis(3,1-phenylene))bis(1H-imidazole-5,2-diyl))bis(pyrrolidine-2,1-diyl))bis(3-methyl-1-oxobutane-1,2-diyl))dicarbamate]: the melting point lay in the range of 103 to 105 °C. Besides, in data set [1], the “HCV Replicon 1b SI50” value is recorded as more than 250.06. Besides, the pEC50 in data set [1] (setting [3]) is 6.40. In data set [2], the CC50 at 72 h was more than 100000 nM.
Take `COC(=O)N[C@@H](CC(C)C)C(=O)N1CCC[C@H]1c1ncc(-c2cccc(C#CC#Cc3cccc(-c4cnc([C@@H]5CCCN5C(=O)[C@H](CC(C)C)NC(=O)OC)[nH]4)c3)c2)[nH]1` [Compound 5a, Dimethyl ((2S,2′S)-((2S,2′S)-((buta-1,3-diyne-1,4-diylbis(3,1-phenylene))bis(1H-imidazole-5,2-diyl))bis(pyrrolidine-2,1-diyl))bis(4-methyl-1-oxopentane-1,2-diyl))dicarbamate]: the melting point fell in the range of 103.1 to 105.3 °C. Further, the “HCV Replicon 1b SI50” value in data set [1] is more than 879.51. For the same compound, the pEC50 in data set [1] (setting [3]) was 6.94. In data set [2], the CC50 at 72 h was more than 100000 nM.
Consider `COC(=O)N[C@H](CC(C)C)C(=O)N1CCC[C@H]1c1ncc(-c2ccc(C#CC#Cc3ccc(-c4cnc([C@@H]5CCCN5C(=O)[C@@H](CC(C)C)NC(=O)OC)[nH]4)cc3)cc2)[nH]1` [Compound 6b, Dimethyl ((2R,2′R)-((2S,2′S)-((buta-1,3-diyne-1,4-diylbis(4,1-phenylene))bis(1H-imidazole-5,2-diyl))bis(pyrrolidine-2,1-diyl))bis(4-methyl-1-oxopentane-1,2-diyl))dicarbamate], for which the melting point is 129 to 131 °C. Further, in data set [1], the “HCV Replicon 1b SI50” value was more than 1512.63. For the same compound, the pEC50 in data set [1] (setting [4]) is 7.38. Moreover, in data set [1] (Hepatitis C virus, Huh-5-2, Table S1, in vitro result versus genotype 1b, read-out: NS5A EC50), the pEC50 was 7.18. In addition, the CC50 at 72 h in data set [2] is more than 100000 nM.
In turn, `COC(=O)N[C@@H](CC(C)C)C(=O)N1CCC[C@H]1c1ncc(-c2ccc(C#CC#Cc3ccc(-c4cnc([C@@H]5CCCN5C(=O)[C@H](CC(C)C)NC(=O)OC)[nH]4)cc3)cc2)[nH]1` [Compound 5b, Dimethyl ((2S,2′S)-((2S,2′S)-((buta-1,3-diyne-1,4-diylbis(4,1-phenylene))bis(1H-imidazole-5,2-diyl))bis(pyrrolidine-2,1-diyl))bis(4-methyl-1-oxopentane-1,2-diyl))dicarbamate] came in with a melting point of 124 to 126 °C. Also, the “HCV Replicon 1b SI50” value in data set [1] was more than 6203.47. In data set [1] (setting [3]), the pEC50 is 7.79. Besides, in data set [1] (setting [5]), the pEC50 is 7.79. For the same compound, the CC50 at 72 h in data set [2] is more than 100000 nM.
Regarding `COC(=O)N[C@@H](C(=O)N1CCC[C@H]1c1ncc(-c2ccc(C#CC#Cc3ccc(-c4cnc([C@@H]5CCCN5C(=O)[C@H](NC(=O)OC)c5ccccc5)[nH]4)cc3)cc2)[nH]1)c1ccccc1` [Compound 10b, Dimethyl ((1R,1′R)-((2S,2′S)-((buta-1,3-diyne-1,4-diylbis(4,1-phenylene))bis(1H-imidazole-5,2-diyl))bis(pyrrolidine-2,1-diyl))bis(2-oxo-1-phenylethane-2,1-diyl))dicarbamate], the melting point is 125 to 127 °C. The “HCV Replicon 1b SI50” value in data set [1] is reported as more than 1180.77. Besides, in data set [1] (setting [3]), the pEC50 is 7.07. In data set [2], the CC50 at 72 h was more than 100000 nM.
`CCOC(=O)N[C@H](CC(C)C)C(=O)N1CCC[C@H]1c1ncc(-c2ccc(C#CC#Cc3ccc(-c4cnc([C@@H]5CCCN5C(=O)[C@@H](CC(C)C)NC(=O)OCC)[nH]4)cc3)cc2)[nH]1` [Compound 8b, Diethyl ((2R,2′R)-((2S,2′S)-((buta-1,3-diyne-1,4-diylbis(4,1-phenylene))bis(1H-imidazole-5,2-diyl))bis(pyrrolidine-2,1-diyl))bis(4-methyl-1-oxopentane-1,2-diyl))dicarbamate] came in with a melting point of 129 to 132 °C. In addition, in data set [1], the “HCV Replicon 1b SI50” value was more than 1289.98. Also, in data set [1] (setting [3]), the pEC50 is 7.11. Also, the CC50 at 72 h in data set [2] was more than 100000 nM.
Consider `CCOC(=O)N[C@H](C(=O)N1CCC[C@H]1c1ncc(-c2cccc(C#CC#Cc3cccc(-c4cnc([C@@H]5CCCN5C(=O)[C@@H](NC(=O)OCC)C(C)C)[nH]4)c3)c2)[nH]1)C(C)C` [Compound 3a, Diethyl ((2S,2′S)-((2S,2′S)-((buta-1,3-diyne-1,4-diylbis(3,1-phenylene))bis(1H-imidazole-5,2-diyl))bis(pyrrolidine-2,1-diyl))bis(3-methyl-1-oxobutane-1,2-diyl))dicarbamate], for which the melting point is 124 to 126.7 °C. Also, the “HCV Replicon 1b SI50” value in data set [1] is more than 629.72. Further, the pEC50 in data set [1] (setting [3]) was 6.80. Besides, the CC50 at 72 h in data set [2] is more than 100000 nM.
`CCOC(=O)N[C@H](C(=O)N1CCC[C@H]1c1ncc(-c2ccc(C#CC#Cc3ccc(-c4cnc([C@@H]5CCCN5C(=O)[C@@H](NC(=O)OCC)C(C)C)[nH]4)cc3)cc2)[nH]1)C(C)C` [Compound 3b, Diethyl ((2S,2′S)-((2S,2′S)-((buta-1,3-diyne-1,4-diylbis(4,1-phenylene))bis(1H-imidazole-5,2-diyl))bis(pyrrolidine-2,1-diyl))bis(3-methyl-1-oxobutane-1,2-diyl))dicarbamate] gave a melting point of 139 to 141 °C. The “HCV Replicon 1b SI50” value in data set [1] is on record as more than 297.44. The pEC50 in data set [1] (setting [3]) is 6.47. Moreover, the CC50 at 72 h in data set [2] is more than 100000 nM.
Take `COC(=O)N[C@H](CC(C)C)C(=O)N1CCC[C@H]1c1ncc(-c2cccc(C#CC#Cc3cccc(-c4cnc([C@@H]5CCCN5C(=O)[C@@H](CC(C)C)NC(=O)OC)[nH]4)c3)c2)[nH]1` [Compound 6a, Dimethyl ((2R,2′R)-((2S,2′S)-((buta-1,3-diyne-1,4-diylbis(3,1-phenylene))bis(1H-imidazole-5,2-diyl))bis(pyrrolidine-2,1-diyl))bis(4-methyl-1-oxopentane-1,2-diyl))dicarbamate]: the melting point lay within 111 to 113 °C. Also, the “HCV Replicon 1b SI50” value in data set [1] is given as more than 1034.23. Further, in data set [1] (setting [4]), the pEC50 is 7.02. Moreover, the pEC50 in data set [1] (setting [5]) was 7.01. Moreover, in data set [2], the CC50 at 72 h was more than 100000 nM.
